The text below walks through data of BindingDB's records for patent US11708351 (Achillion Pharmaceuticals, 2023).

In the test the target is Complement factor D (Homo sapiens, UniProt P00746). Nature of the test: Human Factor D Assay. Here is the method: Human Factor D (purified from human serum, Complement Technology, Inc.) at 80 nM final concentration is incubated with test compound at various concentrations for 5 min at room temperature in 50 mM Tris, 1M NaCl, pH 7.5. A synthetic substrate Z-L-Lys-SBzl and DTNB (Ellman's reagent) are added to final concentrations of 100 μM each. Absorbance at 405 nm (A405) is recorded at 30 second intervals for 30 min using a microplate spectrophotometer. IC50 values are calculated by nonlinear regression of complement Factor D reaction rates as a function of test compound concentration.
Sequence of Complement factor D (P00746 whole entry): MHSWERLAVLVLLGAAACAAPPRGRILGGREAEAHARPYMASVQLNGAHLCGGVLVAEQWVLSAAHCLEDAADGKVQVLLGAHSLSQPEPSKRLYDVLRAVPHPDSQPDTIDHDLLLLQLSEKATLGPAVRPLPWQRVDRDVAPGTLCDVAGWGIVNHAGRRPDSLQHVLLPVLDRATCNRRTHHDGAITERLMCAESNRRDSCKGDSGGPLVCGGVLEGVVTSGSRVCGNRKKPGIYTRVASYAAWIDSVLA

`CC(=O)c1nn(CC(=O)N2[C@@H](C(=O)Nc3nc(Br)ccc3C)C[C@@]3(C)C[C@@H]23)c2ccc(-c3cnc(C)nc3)cc12` [US11708351, Compound 279]: the IC50 was above 10 µM.
